The source of these data is patent EP3088389A1, “4-EPI-ISOFAGOMINE DERIVATIVES” (Dorphan S.A., priority 2015, dated 2016).

Each structure is given as a SMILES string. Where only a bound is given, the exact number is not on record here.

The target of assay [1] is T1, Beta-galactosidase (Homo sapiens, UniProt P16278).
T1 construct: endogenous in cells; host or cells: human peripheral blood mononuclear cells (lysate)
T1 sequence (P16278 29-677): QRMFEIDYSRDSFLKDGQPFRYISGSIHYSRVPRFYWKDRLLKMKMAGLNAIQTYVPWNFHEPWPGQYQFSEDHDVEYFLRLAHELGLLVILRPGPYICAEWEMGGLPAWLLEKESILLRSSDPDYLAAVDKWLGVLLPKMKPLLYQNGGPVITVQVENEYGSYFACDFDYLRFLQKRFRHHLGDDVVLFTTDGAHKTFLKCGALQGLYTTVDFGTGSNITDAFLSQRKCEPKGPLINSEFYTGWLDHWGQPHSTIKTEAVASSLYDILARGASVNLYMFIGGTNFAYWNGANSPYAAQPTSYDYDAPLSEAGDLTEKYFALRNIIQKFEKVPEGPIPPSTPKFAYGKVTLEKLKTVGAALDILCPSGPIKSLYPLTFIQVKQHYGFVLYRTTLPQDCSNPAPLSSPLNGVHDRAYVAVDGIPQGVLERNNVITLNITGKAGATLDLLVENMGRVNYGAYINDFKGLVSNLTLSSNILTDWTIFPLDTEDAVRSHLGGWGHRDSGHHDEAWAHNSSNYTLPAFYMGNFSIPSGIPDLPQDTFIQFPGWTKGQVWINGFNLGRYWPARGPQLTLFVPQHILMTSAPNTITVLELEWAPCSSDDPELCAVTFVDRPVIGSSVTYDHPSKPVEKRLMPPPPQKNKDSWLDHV
Kind of assay: Inhibition of wild type beta-galactosidase activity in human peripheral blood mononuclear cell lysate (Example 3). In kind it is biochemical. Here is the method: Samples of human peripheral blood mononuclear cell lysate (2 x 10^6 cells per assay) were incubated with graded concentrations of compound in 25 mM sodium phosphate, pH 7.3, supplemented with 0.5% Triton X-100 and protease inhibitors, and 0.8 mM of 4-methylumbelliferyl β-D-galactopyranoside. After an incubation of 2 hours at 37°C, the enzymatic reactions were stopped by the addition of 0.15 M glycine, pH 10.2, and fluorescence was measured at 445 nm using an excitation wavelength of 365 nm.

The target in assay [2] is T1, Beta-galactosidase. Kind of assay: Inhibition of wild type beta-galactosidase activity in human peripheral blood mononuclear cell lysate (Example 1). To be noted: for IC50: human PBMC lysate, pH 7.3, 2 hours at 37°C. In kind it is biochemical. Here is the method:
Samples of human peripheral blood mononuclear cell lysate (2 x 10^6 cells per assay) were incubated with graded concentrations of compound N-nonyl-4-epi-isofagomine or 4-epi-isofagomine in 50 mM sodium phosphate, pH 7.3, supplemented with 1% Triton X-100 and protease inhibitors, and 0.8 mM of 4-methylumbelliferyl β-D-galactopyranoside. After an incubation of 2 hours at 37°C, the enzymatic reactions were stopped by the addition of 0.15 M glycine, pH 10.2, and fluorescence was measured at 445 nm using an excitation wavelength of 365 nm. The stock solutions of compound were at 20 mM in DMSO.
The results obtained with N-nonyl-4-epi-isofagomine (squares), 4-epi-isofagomine (triangles) and DMSO vehicle (circles) are presented on figure 1.

Assay [3] has as its target T1, Beta-galactosidase. Briefly: Glycosidase specificity panel, beta-galactosidase from PBMC lysate (Example 4). The assay is classed as biochemical. From the text: (§1) IC50 values indicated in table 1 are the concentrations of (2R,3R,4S,5R)-3-hydroxymethyl-2-pentylpiperidine-4,5-diol compound required to inhibit by half the different enzymatic activities.
The target in a further assay is T2, Alpha-galactosidase (Homo sapiens, UniProt P06280).
T2 sequence (P06280 32-429): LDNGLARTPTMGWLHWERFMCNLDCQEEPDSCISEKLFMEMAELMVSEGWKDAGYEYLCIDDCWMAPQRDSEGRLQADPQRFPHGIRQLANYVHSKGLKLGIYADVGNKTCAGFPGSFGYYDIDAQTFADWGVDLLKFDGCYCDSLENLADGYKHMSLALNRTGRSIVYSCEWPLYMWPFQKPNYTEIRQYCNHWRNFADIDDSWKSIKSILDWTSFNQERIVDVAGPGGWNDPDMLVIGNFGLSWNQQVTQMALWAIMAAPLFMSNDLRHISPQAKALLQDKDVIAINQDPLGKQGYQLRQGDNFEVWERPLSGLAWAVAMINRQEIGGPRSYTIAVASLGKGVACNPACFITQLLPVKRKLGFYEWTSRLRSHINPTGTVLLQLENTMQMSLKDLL
Briefly: Glycosidase specificity panel (Example 4). In kind it is biochemical.
Excerpt: as §1

The target in a further assay is T3, Beta-glucuronidase (Homo sapiens, UniProt P08236).
T3 sequence (P08236 23-651): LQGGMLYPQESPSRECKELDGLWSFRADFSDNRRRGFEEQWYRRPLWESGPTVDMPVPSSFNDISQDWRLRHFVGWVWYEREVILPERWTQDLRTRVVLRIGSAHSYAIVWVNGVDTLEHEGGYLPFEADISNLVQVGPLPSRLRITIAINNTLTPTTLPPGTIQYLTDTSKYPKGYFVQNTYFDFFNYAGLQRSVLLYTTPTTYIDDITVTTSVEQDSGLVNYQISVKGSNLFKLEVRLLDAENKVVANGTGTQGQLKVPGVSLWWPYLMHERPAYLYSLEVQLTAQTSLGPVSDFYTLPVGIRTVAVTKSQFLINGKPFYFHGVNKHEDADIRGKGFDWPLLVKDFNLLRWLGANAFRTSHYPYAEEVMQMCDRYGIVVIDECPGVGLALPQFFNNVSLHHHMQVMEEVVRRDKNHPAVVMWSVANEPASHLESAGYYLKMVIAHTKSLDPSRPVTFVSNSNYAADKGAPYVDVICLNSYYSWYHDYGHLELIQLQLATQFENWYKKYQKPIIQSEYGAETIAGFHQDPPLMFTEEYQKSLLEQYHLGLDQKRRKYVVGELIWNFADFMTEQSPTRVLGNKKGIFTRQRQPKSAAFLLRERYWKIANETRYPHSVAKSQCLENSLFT
Briefly: Glycosidase specificity panel (Example 4). The assay is classed as biochemical.
Excerpt: as §1

The target of assay [4] is T1, Beta-galactosidase. Kind of assay: Prevention of heat denaturation of beta-galactosidase in PBMC lysate at 48°C (Example 5). In kind it is biochemical. From the text: The capacity of a compound of protecting an enzyme from denaturation predicts to some extent its pharmacological chaperone activity, i.e. its capacity of restoring enzymatic activity in patient cells exposed to the compound. The Applicant has evaluated whether (2R,3R,4S,5R)-3-hydroxymethyl-2-pentylpiperidine-4,5-diol can prevent heat denaturation of human beta-galactosidase following a procedure described by Suzuki et al 2014.
Samples of human peripheral blood mononuclear cell lysate (2 x 10^6 cells) in phosphate buffer, pH 7.3, 0.5% Triton X-100 and protease inhibitors were incubated at 48°C for 0, 5, 10, 20, and 40 minutes in the presence of graded concentrations of (2R,3R,4S,5R)-3-hydroxymethyl-2-pentylpiperidine-4,5-diol. The samples were then diluted in citrate buffer, pH 4.3, and 0.25 mM of 4-methylumbelliferyl β-D-galactopyranoside. After an incubation of 17 hours at 37°C, the reaction was stopped by the addition of glycine 0.15 M, pH 10.2. Fluorescence was determined at 445 nm using an excitation wavelength at 365 nm. The tested concentrations of (2R,3R,4S,5R)-3-hydroxymethyl-2-pentylpiperidine-4,5-diol, are 20 µM (square), 2 µM (triangle), 0.2 µM (diamond), 0.02 µM (circle) and 0 µM (line).

Assay [5] has as its system mutated beta-galactosidase. Briefly: Increase of mutated beta-galactosidase activity in fibroblasts of GM1-gangliosidosis patients (Example 6). To be noted: 4 days. The assay is classed as cell-based, human. Here is the method:
GM02439 and GM05335 fibroblasts (Coriell Institute) were cultured for 4 days in the presence or the absence of 2 µM of (2R,3R,4S,5R)-3-hydroxymethyl-2-pentylpiperidine-4,5-diol. Cells were lysed in 100 mM sodium citrate, pH 4.8, supplemented with 1% Triton X-100 and protease inhibitors. B eta-galactosidase and beta-hexosaminidase activities were then determined in the cell lysates using fluorescence and colorimetric assays, respectively. Results presented are means of 4 values obtained from independent cultures. […] Hatched and empty bars: beta-galactosidase and beta-hexosaminidase activities, respectively.

For a further assay, the target named is Alpha-glucosidase. Briefly: Glycosidase specificity panel (Example 4). In kind it is biochemical, Human.
Excerpt: as §1

Assay [6] addresses Beta-hexosaminidase. Kind of assay: Glycosidase specificity panel (Example 4). In kind it is biochemical, Human.
Excerpt: as §1

The next assay has as its target Alpha-hexosaminidase. Briefly: Glycosidase specificity panel (Example 4). In kind it is biochemical, Human.
Excerpt: as §1

For a further assay, the target named is Beta-glucosidase. Kind of assay: Glycosidase specificity panel (Example 4). In kind it is biochemical, Human.
Excerpt: as §1

In assay [7] the test system is Beta-hexosaminidase. Briefly: Beta-hexosaminidase activity in fibroblasts of GM1-gangliosidosis patients (Example 6). The assay is classed as cell-based, human. As to conditions: GM02439 and GM05335 fibroblasts, 2 µM, 4 days. Here is the method: GM02439 and GM05335 fibroblasts (Coriell Institute) were cultured for 4 days in the presence or the absence of 2 µM of (2R,3R,4S,5R)-3-hydroxymethyl-2-pentylpiperidine-4,5-diol. Cells were lysed in 100 mM sodium citrate, pH 4.8, supplemented with 1% Triton X-100 and protease inhibitors. B eta-galactosidase and beta-hexosaminidase activities were then determined in the cell lysates using fluorescence and colorimetric assays, respectively. Results presented are means of 4 values obtained from independent cultures. Percent of deviation of each value is <30% from the mean. Hatched and empty bars: beta-galactosidase and beta-hexosaminidase activities, respectively.

Where [8] appears, read: human PBMC lysate, pH 7.3, 2 hours at 37°C, Example 3, read-out: IC50.

Turning to `CCCCCC1NCC(O)[C@@H](O)[C@H]1CO` (stereo in doubt) [(2R,3R,4S,5S)-3-hydroxymethyl-2-pentylpiperidine-4,5-diol], the “fold less potent than (2R,3R,4S,5R) isomer” value at Beta-galactosidase [1] (Example 3) worked out at 150 fold. The IC50 (in general, the point on the concentration scale where inhibition reaches its midpoint) at Beta-galactosidase [1] (setting [8]) was 1.5 µM.

As for `OC[C@H]1CNC[C@@H](O)[C@H]1O` [4-epi-isofagomine], the values for the IC50 against Beta-galactosidase [2] and on Beta-galactosidase [1] were 0.07 µM and 0.8 µM, respectively.

Consider `CCCCC[C@H]1NC[C@@H](O)[C@@H](O)[C@H]1CO` [(2R,3R,4S,5R)-3-Hydroxymethyl-2-pentylpiperidine-4,5-diol], for which the IC50 was 0.02 µM on Beta-galactosidase [3]; 150 µM against Alpha-galactosidase; more than 160 µM at Beta-glucuronidase; more than 160 µM against Alpha-glucosidase; more than 160 µM against Beta-hexosaminidase [6]; more than 160 µM against Alpha-hexosaminidase. Also, the IC50 on Beta-glucosidase is 60 µM; at Beta-galactosidase [1] (setting [8]), 0.01 µM. The activity at 0.02 µM on Beta-galactosidase [4] (0 minute) was determined as 100%; at Beta-galactosidase [4] (5 minutes) it was 70%; on Beta-galactosidase [4] (10 minutes), 46%; on Beta-galactosidase [4] (20 minutes) it was 23%; at Beta-galactosidase [4] (40 minutes), 11%. Also, the activity at 0.2 µM was found to be 100% on Beta-galactosidase [4] (0 minute); 81% at Beta-galactosidase [4] (5 minutes); 72% on Beta-galactosidase [4] (10 minutes); 56% at Beta-galactosidase [4] (20 minutes); 33% on Beta-galactosidase [4] (40 minutes). The “time to loss of 50% of the beta-galactosidase activity” value at Beta-galactosidase [4] (2 µM) and at Beta-galactosidase [4] (20 µM) was more than 40 min throughout. Further, the activity at 2 µM at Beta-galactosidase [4] (2 µM, 0 minute) was 100%; on Beta-galactosidase [4] (2 µM, 5 minutes), 82%; on Beta-galactosidase [4] (2 µM, 10 minutes), 84%; at Beta-galactosidase [4] (2 µM, 20 minutes), 73%; at Beta-galactosidase [4] (2 µM, 40 minutes) it was 70%. The activity at 20 µM was found to be 100% on Beta-galactosidase [4] (20 µM, 0 minute); 93% at Beta-galactosidase [4] (20 µM, 5 minutes); 95% at Beta-galactosidase [4] (20 µM, 10 minutes); 85% on Beta-galactosidase [4] (20 µM, 20 minutes); 87% at Beta-galactosidase [4] (20 µM, 40 minutes). Besides, the “increase of mutated beta-galactosidase activity relative to untreated cells” value is listed as 19 fold in assay [5] (infantile GM1-gangliosidosis cell line GM05335, 2 µM) and 6.5 fold in assay [5] (juvenile GM1-gangliosidosis cell line GM02439, 2 µM). In addition, the “increase of the beta-hexosaminidase activity” value in the assay with Beta-hexosaminidase [7] was “no increase”.

Regarding `CCCCCCCCCN1CC(O)C(O)C(CO)C1` (stereo not drawn) [N-nonyl-4-epi-isofagomine], at Beta-galactosidase [2], the “fold less inhibitory on human beta-galactosidase than 4-epi-isofagomine” value turned out to be 140 fold and the IC50 was found to be 10 µM.
